Laboratory results as given in ChEMBL document CHEMBL5370625, “Design of Next-Generation DGAT2 Inhibitor PF-07202954 with Longer Predicted Half-Life” (ACS Med Chem Lett, 2023).

Key:
physchem [1] = assay: physchem
Description: Dissociation constant, pKa of the compound

[2] = human, hepatocytes
Description: Apparent intrinsic clearance in human hepatocytes measured per million cells by LC-MS/MS analysis

in vitro = settings: dog, MDCK
Description: Apparent permeability in MDCKII-LE cells incubated for 1.5 hrs

[3] = Oral bioavailability in Wistar Han rat; format: ADME, organism-based; settings: in vivo
[4] = Half life of the compound in Wistar Han rat at 1 mg/kg, iv; format: ADME, organism-based; settings: in vivo
[5] = Volume of distribution at steady state in Wistar Han rat at 1 mg/kg, iv; format: ADME, organism-based; settings: in vivo, read-out: Vdss
physchem [6] = settings: octanol/aqueous buffer, pH 7.4
[7] = Clearance in Wistar Han rat plasma at 1 mg/kg,iv; format: ADME, organism-based
[8] = Renal clearance in Wistar Han rat at 1 mg/kg, iv; format: ADME, organism-based; settings: in vivo
[9] = molecular target: T1, Diacylglycerol O-acyltransferase 2 (Homo sapiens, UniProt Q96PD7)
T1 sequence (Q96PD7 whole entry): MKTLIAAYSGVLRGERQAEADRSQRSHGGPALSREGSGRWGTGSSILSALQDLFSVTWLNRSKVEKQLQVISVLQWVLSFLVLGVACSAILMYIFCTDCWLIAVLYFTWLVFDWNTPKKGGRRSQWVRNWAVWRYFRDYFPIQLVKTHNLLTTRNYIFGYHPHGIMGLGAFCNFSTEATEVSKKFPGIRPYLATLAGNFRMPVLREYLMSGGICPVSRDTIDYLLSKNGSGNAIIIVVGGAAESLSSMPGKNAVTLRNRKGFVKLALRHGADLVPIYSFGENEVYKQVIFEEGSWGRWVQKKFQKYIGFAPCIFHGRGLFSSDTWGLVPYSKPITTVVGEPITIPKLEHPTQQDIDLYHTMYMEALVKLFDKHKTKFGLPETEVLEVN
Description: Inhibition of human DGAT2 using 14C decanoyl-CoA as a substrate pre incubated for 2 hrs followed by substrate addition measured after 40 mins by Trilux Microbeta reader analysis

[10] = Volume of distribution at steady state in cynomolgus monkey at 1 mg/kg, iv; format: ADME, organism-based, Macaca fascicularis; settings: in vivo, read-out: Vdss
[11] = Half life of the compound in po dosed Wistar Han rat; format: ADME, organism-based; settings: in vivo
[12] = Half life of the compound in po dosed cynomolgus monkey; format: ADME, organism-based, Macaca fascicularis; settings: in vivo
[13] = Renal clearance in cynomolgus monkey plasma at 1 mg/kg, iv; format: ADME, organism-based, Macaca fascicularis
[14] = Oral bioavailability in cynomolgus monkey; format: ADME, organism-based, Macaca fascicularis; settings: in vivo
[15] = Apparent intrinsic clearance in human hepatocytes measured per million cells at 1 uM incubated for 4 hrs by relay method; format: ADME, cell-based, Hepatocyte
[16] = Volume of distribution at steady state in Beagle dog plasma at 1 mg/kg, iv; format: ADME, organism-based, Canis lupus familiaris; settings: read-out: Vdss
[17] = molecular target: T2, Diacylglycerol O-acyltransferase 1 (Homo sapiens, UniProt O75907); assay: Inhibition of DGAT1 (unknown origin)
T2 sequence (O75907 whole entry): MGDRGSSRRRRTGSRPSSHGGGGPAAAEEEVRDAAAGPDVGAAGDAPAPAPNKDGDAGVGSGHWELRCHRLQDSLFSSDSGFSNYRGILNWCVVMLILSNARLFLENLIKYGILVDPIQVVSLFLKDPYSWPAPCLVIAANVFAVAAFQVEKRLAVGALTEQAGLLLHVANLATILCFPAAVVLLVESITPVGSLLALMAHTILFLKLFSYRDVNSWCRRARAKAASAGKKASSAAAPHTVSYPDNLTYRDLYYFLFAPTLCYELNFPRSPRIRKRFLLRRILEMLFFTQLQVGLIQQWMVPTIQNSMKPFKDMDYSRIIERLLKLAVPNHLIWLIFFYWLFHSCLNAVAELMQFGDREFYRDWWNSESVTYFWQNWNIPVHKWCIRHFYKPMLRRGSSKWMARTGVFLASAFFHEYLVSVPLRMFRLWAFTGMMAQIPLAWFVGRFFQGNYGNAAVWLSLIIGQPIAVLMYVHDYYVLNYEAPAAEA

[18] = Clearance in po dosed Wistar Han rat; format: ADME, organism-based; settings: in vivo
Rattus norvegicus [19] = assay: Hepatoprotective activity in po dosed high sucrose diet induced Sprague-Dawley rat model assessed as reduction in plasma triglycerides level measured after 2 to 4 hrs post last dose; format: functional, organism-based; settings: dose 10-100 mg/kg, time 2-4 hrs
[20] = Renal clearance in Beagle dog plasma at 1 mg/kg,iv; format: ADME, organism-based, Canis lupus familiaris
[21] = Clearance in po dosed cynomolgus monkey plasma; format: ADME, organism-based, Macaca fascicularis
Rattus norvegicus [22] = assay: Hepatoprotective activity in western diet induced Sprague-Dawley rat model assessed as reduction in liver triglycerides level at 100 mg/kg, po administered 7 days starting from day 14 post diet followed by single dose administration on day 8 and measured 2 hrs post last dose relative to control; format: functional; parameters: scale not given: the % may be the effect or the level left; settings: time 8 day
[23] = Half life of the compound in cynomolgus monkey at 1 mg/kg, iv; format: ADME, organism-based, Macaca fascicularis; settings: in vivo
[24] = Volume of distribution at steady state in po dosed Wistar Han rat; format: ADME, organism-based; settings: in vivo
[25] = Volume of distribution at steady state in po dosed cynomolgus monkey; format: ADME, organism-based, Macaca fascicularis; settings: in vivo
Rattus norvegicus [26] = assay: Hepatoprotective activity in po dosed western diet induced Sprague-Dawley rat model assessed as reduction in plasma triglycerides level administered 7 days starting from day 14 post diet followed by single dose administration on day 8 and measured 2 hrs post last dose; format: functional, organism-based; settings: dose 3-100 mg/kg, time 8.0 day
[27] = Clearance in Beagle dog plasma at 1 mg/kg,iv; format: ADME, organism-based, Canis lupus familiaris
[28] = Renal clearance in po dosed cynomolgus monkey; format: ADME, organism-based, Macaca fascicularis; settings: in vivo
[29] = molecular target: T3, Diacylglycerol O-acyltransferase 2 (Rattus norvegicus, UniProt Q5FVP8); assay: Inhibition of rat DGAT2 using 14C decanoyl-CoA as a substrate pre incubated for 2 hrs followed by substrate addition measured after 40 mins by Trilux Microbeta reader analysis
T3 sequence (Q5FVP8 whole entry): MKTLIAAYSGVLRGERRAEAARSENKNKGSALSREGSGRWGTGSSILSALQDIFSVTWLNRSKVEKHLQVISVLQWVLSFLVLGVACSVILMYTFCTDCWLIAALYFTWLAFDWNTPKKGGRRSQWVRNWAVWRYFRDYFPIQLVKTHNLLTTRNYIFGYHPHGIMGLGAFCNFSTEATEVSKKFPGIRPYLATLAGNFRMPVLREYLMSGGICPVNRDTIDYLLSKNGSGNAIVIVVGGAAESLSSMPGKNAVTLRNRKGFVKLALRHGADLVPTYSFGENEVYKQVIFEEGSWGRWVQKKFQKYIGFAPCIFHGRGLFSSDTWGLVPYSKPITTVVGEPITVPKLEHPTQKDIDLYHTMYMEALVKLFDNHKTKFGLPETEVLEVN

Rattus norvegicus [30] = assay: Hepatoprotective activity in western diet induced Sprague-Dawley rat model assessed as reduction in plasma triglycerides level at 100 mg/kg, po administered 7 days starting from day 14 post diet followed by single dose administration on day 8 and measured 2 hrs post last dose relative to control; format: functional; parameters: scale not given: the % may be the effect or the level left; settings: time 8 day
Rattus norvegicus [31] = assay: Hepatoprotective activity in po dosed western diet induced Sprague-Dawley rat model assessed as reduction in liver triglycerides level administered 7 days starting from day 14 post diet followed by single dose administration on day 8 and measured 2 hrs post last dose; format: functional, organism-based; settings: dose 3-100 mg/kg, time 8.0 day
[32] = Renal clearance in po dosed Wistar Han rat; format: ADME, organism-based; settings: in vivo
[33] = Half life of the compound in Beagle dog plasma at 1 mg/kg, iv; format: ADME, organism-based, Canis lupus familiaris
Rattus norvegicus [34] = assay: Hepatoprotective activity in po dosed high sucrose diet induced Sprague-Dawley rat model assessed as reduction in liver triglycerides level measured after 2 to 4 hrs post last dose; format: functional, organism-based; settings: dose 10-100 mg/kg, time 2-4 hrs

## CCOc1cccnc1Oc1cncc(-c2ncc(C(=O)N[C@@H]3CCNC3)cn2)c1
Physchem [1]
  pKa: 9.2
[2]
  CLH(app): < 3 µL/min
In vitro
  Papp at 1.5 h: 0.68 ×10⁻⁶ cm/s
[3]
  bioavailability: < 1%
[4]
  half-life: 1.9 h
[5]
  Vd: 4.1 L/kg
Physchem [6]
  logD at 1 h: -0.15
[7]
  clearance: 51 mL/min/kg
[8]
  CL renal: 5.2 mL/min/kg
[9]
  IC50: 410 nM

## CCOc1cccnc1Oc1cncc(-c2ncc(C(=O)N[C@@H]3CNCC(F)(F)C3)cn2)c1
[2]
  CLH(app): 9.3 µL/min
In vitro
  Papp at 1.5 h: 14 ×10⁻⁶ cm/s
Physchem [6]
  logD at 1 h: 2.3

## CCOc1cccnc1Oc1cncc(-c2ncc(C(=O)NC3CCNCC3)cn2)c1
Physchem [1]
  pKa: 10.1
In vitro
  Papp at 1.5 h: 1.3 ×10⁻⁶ cm/s
Physchem [6]
  logD at 1 h: -0.19
[9]
  IC50: 22000 nM

## CCOc1cccnc1Oc1cncc(-c2ncc(C(=O)N[C@@H]3CNCCC3(F)F)cn2)c1
Physchem [1]
  pKa: 6.4
[2]
  CLH(app): 4.7 µL/min
In vitro
  Papp at 1.5 h: 18 ×10⁻⁶ cm/s
Physchem [6]
  logD at 1 h: 1.8

## CCOc1cccnc1Oc1cncc(-c2ncc(C(=O)N[C@H]3CNC[C@H](F)C3)cn2)c1
[2]
  CLH(app): < 1.9 µL/min
In vitro
  Papp at 1.5 h: 2.5 ×10⁻⁶ cm/s
Physchem [6]
  logD at 1 h: 1.3

## CCOc1cccnc1Oc1cncc(-c2ncc(C(=O)N[C@@H]3CNCC[C@@H]3F)cn2)c1
Physchem [1]
  pKa: 8
[2]
  CLH(app): < 1.9 µL/min
In vitro
  Papp at 1.5 h: 4.7 ×10⁻⁶ cm/s
Physchem [6]
  logD at 1 h: 0.96
[9]
  IC50: 16 nM

## CCOc1cccnc1Oc1cncc(-c2ncc(C(=O)N[C@H]3CC[C@@H](C(F)(F)F)NC3)cn2)c1 (relative stereo)
Physchem [1]
  pKa: 4.5
[2]
  CLH(app): 38 µL/min
In vitro
  Papp at 1.5 h: 30 ×10⁻⁶ cm/s
Physchem [6]
  logD at 1 h: 2.8
[9]
  IC50: 4.4 nM

## CCOc1cccnc1Oc1cncc(-c2ncc(C(=O)N[C@@H]3CNC[C@H](F)C3)cn2)c1 (racemic)
Physchem [1]
  pKa: 6.8
[2]
  CLH(app): 6.6 µL/min
In vitro
  Papp at 1.5 h: 13 ×10⁻⁶ cm/s
Physchem [6]
  logD at 1 h: 1.7
[9]
  IC50: 200 nM

## CCOc1cccnc1Oc1cncc(-c2ncc(C(=O)N[C@H]3CCOC3)cn2)c1 [PF-06865571]
[10]
  Vd: 0.71 L/kg
[11]
  half-life: 1.4 h
[12]
  half-life: 3.9 h
In vitro
  Papp at 1.5 h: 19 ×10⁻⁶ cm/s
[13]
  CL renal: < 0.1 mL/min/kg
[14]
  bioavailability: 48%
[15]
  CLH(app): 3.9 µL/min
[3]
  bioavailability: 31%
Physchem [6]
  logD at 1 h: 1.9
[8]
  CL renal: < 0.1 mL/min/kg

## CCOc1cccnc1Oc1cncc(-c2ncc(C(=O)N[C@H]3CCNC3)cn2)c1
Physchem [1]
  pKa: 9.2
[2]
  CLH(app): < 1.8 µL/min
In vitro
  Papp at 1.5 h: 0.39 ×10⁻⁶ cm/s
Physchem [6]
  logD at 1 h: -0.9
[9]
  IC50: 500 nM

## CCOc1cccnc1Oc1cncc(-c2ncc(C(=O)N[C@@H]3CNCC[C@H]3F)cn2)c1
[2]
  CLH(app): < 1.9 µL/min
In vitro
  Papp at 1.5 h: 8.8 ×10⁻⁶ cm/s
Physchem [6]
  logD at 1 h: 1.4

## CCOc1cccnc1Oc1cncc(-c2ncc(C(=O)N[C@@H]3CNC[C@@H](F)C3)cn2)c1
[16]
  Vd: 2.1 L/kg
[17]
  IC50: > 50000 nM
[18]
  CL/F: 64 mL/min/kg
Rattus norvegicus [19]
  Activity: Dose-Dependent Effect
[20]
  CL renal: 5.5 mL/min/kg
[21]
  CL/F: 17 mL/min/kg
Rattus norvegicus [22]
  Activity: 48%
[12]
  half-life: 6.5 h
[23]
  half-life: 1.4 h
[24]
  Vdss: 2.7 L/kg
In vitro
  Papp at 1.5 h: 2.9 ×10⁻⁶ cm/s
[25]
  Vdss: 1.6 L/kg
[14]
  bioavailability: 21%
[15]
  CLH(app): 0.99 µL/min
[3]
  bioavailability: 12%
[4]
  half-life: 0.9 h
Rattus norvegicus [26]
  Activity: Dose-Dependent Effect
Physchem [6]
  logD at 1 h: 1.4
[27]
  clearance: 22 mL/min/kg
[28]
  CL renal: 0.29 mL/min/kg
[29]
  IC50: 17 nM
Rattus norvegicus [30]
  Activity: 71%
Rattus norvegicus [31]
  Activity: Dose-Dependent Effect
[32]
  CL renal: 7.5 mL/min/kg
[33]
  half-life: 1.5 h
Rattus norvegicus [34]
  Activity: Dose-Dependent Effect
